# Experimental data taken from US20130053395A1, “PYRAZOLOPYRIDINE KINASE INHIBITORS” (VERTEX PHARMACEUTICALS INCORPORATED, priority 2010, published 2013).
# pKi: −log10 of the molar value.
# What was measured:
# PKC theta kinase = PKC theta kinase (Homo sapiens, UniProt Q04759); experiment: PKC theta kinase coupled-enzyme (NADH) Ki assay; type: biochemical; conditions: 18 nM PKC theta, 240 μM ATP, 30° C., initial rate at 340 nM
# Method: An assay buffer solution was prepared which consisted of 100 mM HEPES (pH 7.5), 10 mM MgCl2, 25 mM NaCl, 0.1 mM EDTA and 0.01% Brij. An enzyme buffer containing reagents to final assay concentrations of 0.00001% Triton X-100, 200 μg/mL Phosphatidylserine, 20 μg/mL Diacylglycerol, 360 μM NADH, 3 mM phosphoenolpyruvate, 70 μg/mL pyruvate kinase, 24 μg/mL lactate dehydrogenase, 2 mM DTT, 100 μM substrate peptide ([…] SEQ ID NO. 1) and 18 nM PKC theta kinase was prepared in assay buffer. To 60 μL of this enzyme buffer, in a 384 well plate, was added 2 μL of VRT stock solution in DMSO. The mixture was allowed to equilibrate for 10 mins at 30° C. The enzyme reaction was initiated by the addition of 5 μL stock ATP solution prepared in assay buffer to a final assay concentration of 240 μM. Initial rate data was determined from the rate of change of absorbance at 340 nm (corresponding to stoichiometric consumption of NADH) using a Molecular Devices Spectramax plate reader (Sunnyvale, Calif.) over 15 mins at 30° C. For each Ki determination 12 data points covering the VRT concentration range of 0-20 μM were obtained in duplicate (DMSO stocks were prepared from an initial 10 mM VRT stock with subsequent 1:2 serial dilutions). Ki values were calculated from initial rate data by non-linear regression using the Prism software package (Prism 4.0a, Graphpad Software, San Diego, Calif.).
# PKC delta kinase = PKC delta kinase (Homo sapiens, UniProt Q05655); experiment: PKC delta kinase coupled-enzyme (NADH) Ki assay; type: biochemical; conditions: 46 nM PKC delta, 150 μM ATP, 30° C., initial rate at 340 nM
# Sequence of PKC delta kinase (Q05655 whole entry): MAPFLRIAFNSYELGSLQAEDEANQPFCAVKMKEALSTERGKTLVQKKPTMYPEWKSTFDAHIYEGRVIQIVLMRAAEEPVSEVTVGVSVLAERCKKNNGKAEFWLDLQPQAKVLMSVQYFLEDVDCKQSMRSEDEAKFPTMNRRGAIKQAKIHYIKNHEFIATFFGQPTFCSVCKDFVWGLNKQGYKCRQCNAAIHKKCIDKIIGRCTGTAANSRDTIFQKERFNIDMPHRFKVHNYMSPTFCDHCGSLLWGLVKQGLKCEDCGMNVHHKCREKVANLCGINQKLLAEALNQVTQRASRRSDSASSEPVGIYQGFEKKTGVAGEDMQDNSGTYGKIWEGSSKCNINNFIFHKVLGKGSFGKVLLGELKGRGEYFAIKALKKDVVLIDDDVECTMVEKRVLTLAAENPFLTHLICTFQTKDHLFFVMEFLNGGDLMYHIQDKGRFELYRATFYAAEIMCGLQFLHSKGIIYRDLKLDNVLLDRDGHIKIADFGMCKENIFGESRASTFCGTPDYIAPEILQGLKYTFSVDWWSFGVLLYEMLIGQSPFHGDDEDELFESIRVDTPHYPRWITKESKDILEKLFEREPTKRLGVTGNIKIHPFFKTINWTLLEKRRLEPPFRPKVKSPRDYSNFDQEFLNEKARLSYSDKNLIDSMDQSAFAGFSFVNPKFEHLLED
# Method: An assay buffer solution was prepared which consisted of 100 mM HEPES (pH 7.5), 10 mM MgCl2, 25 mM NaCl, 0.1 mM EDTA and 0.01% Brij. An enzyme buffer containing reagents to final assay concentrations of 0.002% Triton X-100, 200 μg/mL Phosphatidylserine, 20 μg/mL Diacylglycerol, 360 μM NADH, 3 mM phosphoenolpyruvate, 70 μg/mL pyruvate kinase, 24 μg/mL lactate dehydrogenase, 2 mM DTT, 150 μM substrate peptide ([…] SEQ ID NO. 2) and 46 nM PKC delta kinase was prepared in assay buffer. To 16 μL of this enzyme buffer, in a 384 well plate, was added 1 μL of VRT stock solution in DMSO. The mixture was allowed to equilibrate for 10 mins at 30° C. The enzyme reaction was initiated by the addition of 16 μL stock ATP solution prepared in assay buffer to a final assay concentration of 150 μM. Initial rate data was determined from the rate of change of absorbance at 340 nm (corresponding to stoichiometric consumption of NADH) using a Molecular Devices Spectramax plate reader (Sunnyvale, Calif.) over 15 mins at 30° C. For each Ki determination 12 data points covering the VRT concentration range of 0-20 μM were obtained in duplicate (DMSO stocks were prepared from an initial 10 mM VRT stock with subsequent 1:2 serial dilutions). Ki values were calculated from initial rate data by non-linear regression using the Prism software package (Prism 4.0a, Graphpad Software, San Diego, Calif.).
# Sequence of PKC theta kinase (Q04759 whole entry): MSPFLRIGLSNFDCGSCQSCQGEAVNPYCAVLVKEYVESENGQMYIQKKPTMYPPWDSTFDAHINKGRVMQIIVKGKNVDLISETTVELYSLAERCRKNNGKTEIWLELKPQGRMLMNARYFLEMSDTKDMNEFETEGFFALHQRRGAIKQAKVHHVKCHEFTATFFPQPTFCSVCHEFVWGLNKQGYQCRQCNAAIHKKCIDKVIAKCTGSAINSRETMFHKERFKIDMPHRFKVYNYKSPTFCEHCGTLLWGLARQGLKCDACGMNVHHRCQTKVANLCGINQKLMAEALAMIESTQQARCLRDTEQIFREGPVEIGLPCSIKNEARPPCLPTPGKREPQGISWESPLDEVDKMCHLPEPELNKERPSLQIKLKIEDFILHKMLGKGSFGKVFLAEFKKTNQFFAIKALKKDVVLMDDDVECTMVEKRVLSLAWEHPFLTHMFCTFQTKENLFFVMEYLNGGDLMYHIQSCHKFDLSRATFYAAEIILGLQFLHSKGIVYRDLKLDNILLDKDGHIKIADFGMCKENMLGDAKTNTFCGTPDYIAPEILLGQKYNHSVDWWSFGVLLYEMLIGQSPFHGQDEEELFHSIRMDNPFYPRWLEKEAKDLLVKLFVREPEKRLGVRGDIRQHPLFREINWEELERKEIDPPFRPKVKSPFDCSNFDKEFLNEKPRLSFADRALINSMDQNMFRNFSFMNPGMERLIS
pKi (PKC theta kinase),pKi (PKC delta kinase),SMILES
> 7.30,> 6.30,"CC(C)(O)[C@@H]1CN(c2nc(-c3n[nH]c4ncccc34)c(F)cc2F)CCN1 [Compound 1, (S)-2-(4-(3,5-difluoro-6-(1H-pyrazolo[3,4-b]pyridin-3-yl)pyridin-2-yl)piperazin-2-yl)propan-2-ol]"
> 9.00,> 6.30,OC1(C2CN(c3nc(-c4n[nH]c5ncccc45)c(F)cc3F)CCN2)CCC1 (centres unmarked) [Compound 2]
> 9.00,> 6.30,CCC(O)(CC)[C@@H]1CN(c2nc(-c3n[nH]c4ncccc34)c(F)cc2F)CCN1 [Compound 3]
> 9.00,> 7.30,OC1([C@@H]2CN(c3nc(-c4n[nH]c5ncccc45)c(F)cc3Cl)CCN2)CC1 [Compound 4]
> 9.00,> 7.30,CC(C)(O)[C@@H]1CN(c2nc(-c3n[nH]c4ncccc34)c(F)cc2Cl)CCN1 [Compound 5]
> 9.00,> 7.30,OC1(C2CN(c3nc(-c4n[nH]c5ncccc45)c(F)cc3Cl)CCN2)CCC1 (centres unmarked) [Compound 6]
> 7.30,–,CC(C)C[C@@H]1CN(c2nc(-c3n[nH]c4ncccc34)c(F)cc2F)CCN1 [Compound 7]
> 7.30,–,CC(C)C[C@@H]1CN(c2nc(-c3n[nH]c4ncccc34)c(F)cc2Cl)CCN1 [Compound 8]
> 7.30,> 7.30,OC[C@@H]1CN(c2nc(-c3n[nH]c4ncccc34)c(F)cc2Cl)CCN1 [Compound 9]
> 6.30,< 5.90,OC[C@@H]1CN(c2nc(-c3n[nH]c4ncccc34)c(F)cc2F)CCN1 [Compound 10]
> 5.55,< 5.90,"CC(C)C[C@@H]1CN(c2nc(-c3n[nH]c4ncccc34)c(C#N)cc2F)CCN1 [Compound 11, (R)-5-fluoro-6-(3-isobutylpiperazin-1-yl)-2-(1H-pyrazolo[3,4-b]pyridin-3-yl)nicotinonitrile]"
